Laboratory results as given in patent publication US4283394A, “Cytotoxic nucleoside-corticosteroid phosphodiesters” (priority 1979, dated 1981).
Where two headings read alike, the source gives them in different places.

Experiments:
[1] = tested on: mouse leukemia L-1210 cells; assay: Antiproliferative activity in vitro, viability of L-1210 cells in culture; assay type: cell-based; conditions: for IC50: read-out: Concentration (μM) for 50 percent loss of viability at 72 hours (ED50)
Method: The antiproliferative activity of the conjugates, ara-C, ara-CMP and the steroids was determined by measuring their effects against mouse leukemia L-1210 cells in culture. The assay was performed in test tubes without agitation according to the procedure described by Hong et al. in J. Med. Chem. 16: 139 (1973). After 24, 48 and 72 h, viable cell counts were performed on the cultures which had been incubated with compounds in various concentrations and the concentration of each compound required to produce a 50 percent inhibition of growth (ED50) after 72 h was determined by interpolation using the method described by Tritsch et al. in Cancer Biochem. Biophys. 2: 87 (1977).

[2] = tested on: i.p. implanted L-1210 leukemia; assay: Antitumor activity against i.p. implanted L-1210 leukemia in mice; assay type: in vivo; conditions: for response vs control in vivo at 25 mg/kg / response vs control in vivo at 50 mg/kg / response vs control in vivo at 100 mg/kg: Mus musculus, L1210, ip; for response vs control in vivo at 50 mg/kg: read-out: Percent T/C (mean survival days treated/control × 100), 50 mg/kg/day × 5 i.p.; for response vs control in vivo at 100 mg/kg: read-out: Percent T/C (mean survival days treated/control × 100), 100 mg/kg/day × 5 i.p.
Method: The ascites cell form of L-1210 leukemia, grown in C3 D2 F1 /J female mice (supplied by Jackson Labs) were employed. The assay was performed according to National Cancer Institute (NCI) protocol 1.100 described by R. I. Gerau et al., Cancer Chemother. Rep. (Part 3) 3: (2): 7, 47 (1972) with a slight modification. Intraperitoneal implantation of 1×10^6 cells in 0.5-ml suspension to the control and the treated groups (each group comprised 8 C3 D2 F1 /J female mice, average wt 20 g) was carried out using donor mice (DBA/2Ha, supplied by Roswell Park Memorial Institute) bearing 3 day tumor growths. Compounds were dissolved in 0.9 percent NaCl and a 0.5 ml dose was administered intraperitoneally once daily. Treatment began 24 h after implantation and continued for 5 consecutive days. Control animals received a 0.5 ml injection of saline. Testing was followed as described in the NCI protocol and evaluated by recording the survival time according to the formula appearing in protocol 11.

[3] = tested on: intracerebrally implanted L-1210; assay: Antitumor activity against intracerebrally (i.c.) implanted L-1210 in mice; assay type: in vivo; conditions: for Survivors on day 35: groups of 8 mice; for Percent T/C: values as of 35th day
Method: Effects of the conjugate on i.c. implanted L-1210 in mice were also studied. A mouse (C3 D2 F1 /J, female, avg. wt. 20 g) was anesthesized with diethyl ether, the right parietal scalp was washed with 70 percent ethanol, a 27 G 1/2 needle with a guard placed on the outside of the barrel 1.5 mm from the top of the bevel, was inserted through the skull and 1×10^5 cells in 0.05 ml suspension were inoculated into the mouse. The conjugate in 0.9 percent NaCl (0.5 ml) was administered intraperitoneally once daily. Treatment began 24 h after implantation and continued for 5 consecutive days. Control animals received a 0.5 ml injection of saline. Testing was followed as described in the NCI protocol and evaluated by recording the survival time according to the formula appearing in protocol 11.

[4] = tested on: i.p. implanted L1210 leukemia; assay: Comparison of conjugates and ara-C plus steroid combinations, i.p. implanted L1210 leukemic mice; assay type: in vivo
Method: Each mouse received 1×10^6 cells intraperitoneally. Doses were administered i.p. once daily to groups of 8 mice (avg. wt. 20 g) for 5 consecutive days beginning 24 hours after tumor implantation. In case of the combination, ara-C and the steroid were given at the same molar concentrations present in the conjugates. Mean survival days were calculated by the equation appearing in the NCI protocol; T/C ratios are reported in percent, i.e (treated/control)×100.

[5] = read-out: Percent T/C (mean survival days treated/control × 100), 25 mg/kg/day × 5 i.p.

`Nc1ccn([C@@H]2O[C@H](CO)[C@@H](O)[C@@H]2O)c(=O)n1` [Ara-C, 1-β-D-Arabinofuranosylcytosine, reference compound] was tested, and the IC50 ([1]; Mus musculus, L1210, 72 h) was 0.1 µM, the “Mean Survival Days, Treated” value ([2]; 25 mg/kg/day × 5 i.p.) was 11.00 days and the “Mean Survival Days, Treated” value ([2]; 50 mg/kg/day × 5 i.p.) was 9.63 days. The “Percent T/C (mean survival days treated/control × 100)” value ([2]; 50 mg/kg/day × 5 i.p.) was 110%, the response vs control in vivo at 25 mg/kg [2, 5] was 128% and the response vs control in vivo at 50 mg/kg [2] was 110%. The “Mean Survival Days” value ([3]; 25 mg (102.8 μmol)/kg/day × 5 i.p.) was 13.75 days, the “Survivors on day 35” value ([3]; 25 mg/kg/day × 5 i.p.) was 0 and the “Percent T/C” value ([3]; 25 mg/kg/day × 5 i.p.) was 152.8%. The “Percent T/C” value ([3]; 25 mg/kg/day × 5 i.p., listed as ara-C) was 153%, the “weight lost by day 14” value ([3]; ara-C treated mice) was “about 5 g” and the “deaths of treated mice” value ([3]; ara-C treated mice, by day 14) was “all but one of them died”.
`Nc1ccn([C@@H]2O[C@H](COP(=O)(O)O)[C@@H](O)[C@@H]2O)c(=O)n1` [Ara-CMP, reference compound] was tested, and the IC50 ([1]; Mus musculus, L1210, 72 h) was 0.05 µM, the “Mean Survival Days, Treated” value ([2]; 50 mg/kg/day × 5 i.p.) was 9.13 days and the “Mean Survival Days, Treated” value ([2]; 100 mg/kg/day × 5 i.p.) was 11.00 days. The response vs control in vivo at 50 mg/kg [2] was 104% and the response vs control in vivo at 100 mg/kg [2] was 122%.
With `C[C@]12C[C@H](O)[C@H]3[C@@H](CCC4=CC(=O)CC[C@@]43C)[C@@H]1CC[C@@H]2C(=O)COP(=O)(O)OC[C@H]1O[C@@H](n2ccc(N)nc2=O)[C@@H](O)[C@@H]1O` [Corticosterone-p-ara-C] the “Survival Days Mean (Treated)” value ([4]; 77.0 μmole/kg/day × 5) was 26.50 days, the “Weight change on Day 8 (g/mouse)” value ([4]; 77.0 μmole/kg/day × 5) was -0.71 g/mouse and the response vs control in vivo at 77 µmol/kg ([4]; Mus musculus, L1210, ip, 77.0 μmole/kg/day × 5, read-out: % T/C) was 342%.
With `C[C@]12CCC(=O)C=C1CC[C@@H]1[C@@H]2[C@@H](O)C[C@@]2(C)[C@H]1CC[C@]2(O)C(=O)COP(=O)(O)OC[C@H]1O[C@@H](n2ccc(N)nc2=O)[C@@H](O)[C@@H]1O` [Cortisol-p-ara-C (V), 5'-(Cortisol-21-phosphoryl)-1-β-D-arabinofuranosylcytosine] the “antiproliferative activity compared with ara-CMP and ara-C” value ([1]; 72 h) was “less active than both ara-CMP and ara-C”, the IC50 ([1]; Mus musculus, L1210, 72 h) was 0.25 µM and the “Mean Survival Days, Treated” value ([2]; 50 mg/kg/day × 5 i.p.) was 24.75 days. The “Mean Survival Days, Treated” value ([2]; 100 mg/kg/day × 5 i.p.) was 14.25 days, the response vs control in vivo at 50 mg/kg [2] was 287% and the response vs control in vivo at 100 mg/kg [2] was 154%. The “Survival Days Mean (Treated)” value ([4]; 75.0 μmole/kg/day × 5) was 24.75 days, the “Weight change on Day 8 (g/mouse)” value ([4]; 75.0 μmole/kg/day × 5 (each, for combinations)) was “+0.09 g/mouse” and the response vs control in vivo at 75 µmol/kg ([4]; Mus musculus, L1210, ip, 75.0 μmole/kg/day × 5, read-out: % T/C) was 287%. For the same compound, the “Mean Survival Days” value ([3]; 50 mg/kg/day × 5 i.p.) was 20.50 days, the “body weight lost by day 11” value ([3]; 50 mg/kg/day × 5 i.p.) was “about 4 g” and the “weight gained over original weight (20 g) by day 20” value ([3]; 50 mg/kg/day × 5 i.p.) was “about 1 g”. The “Survivors on day 35” value ([3]; 50 mg/kg/day × 5 i.p.) was 2, the “Percent T/C” value ([3]; 50 mg/kg/day × 5 i.p.) was 227.8% and the “Percent T/C” value ([3]; 50 mg/kg/day × 5 i.p., listed as V) was 228%.
In the case of `C[C@]12CCC(=O)C=C1CC[C@@H]1[C@@H]2C(=O)C[C@@]2(C)[C@H]1CC[C@]2(O)C(=O)COP(=O)(O)OC[C@H]1O[C@@H](n2ccc(N)nc2=O)[C@@H](O)[C@@H]1O` [Cortisone-p-ara-C (VI), 5'-(Cortisone-21-phosphoryl)-1-β-D-arabinofuranosylcytosine], the “antiproliferative activity compared with ara-CMP and ara-C” value ([1]; 72 h) is reported as “activity comparable to ara-CMP”, the IC50 ([1]; Mus musculus, L1210, 72 h) is reported as 0.07 µM and the “Mean Survival Days, Treated” value ([2]; 50 mg/kg/day × 5 i.p.) is reported as 20.14 days. For the same compound, the response vs control in vivo at 50 mg/kg [2] was 224%, the “Survival Days Mean (Treated)” value ([4]; 75.1 μmole/kg/day × 5) was 21.43 days and the “Weight change on Day 8 (g/mouse)” value ([4]; 75.1 μmole/kg/day × 5) was -0.07 g/mouse. It also gave a response vs control in vivo at 75.1 µmol/kg ([4]; Mus musculus, L1210, ip, 75.1 μmole/kg/day × 5, read-out: % T/C) of 238%.
With `C[C@]12CC[C@H]3[C@@H](CCC4=CC(=O)CC[C@@]43C)[C@@H]1CC[C@@H]2C(=O)COP(=O)(O)OC[C@H]1O[C@@H](n2ccc(N)nc2=O)[C@@H](O)[C@@H]1O` [DOC-p-ara-C] the “Survival Days Mean (Treated)” value ([4]; 78.7 μmole/kg/day × 5) was 21.38 days, the “Weight change on Day 8 (g/mouse)” value ([4]; 78.7 μmole/kg/day × 5) was -0.94 g/mouse and the response vs control in vivo at 78.7 µmol/kg ([4]; Mus musculus, L1210, ip, 78.7 μmole/kg/day × 5, read-out: % T/C) was 238%.
In the case of `C[C@@H]1C[C@H]2[C@@H]3CCC4=CC(=O)C=C[C@]4(C)[C@@]3(F)[C@@H](O)C[C@]2(C)[C@@]1(O)C(=O)COP(=O)(O)OC[C@H]1O[C@@H](n2ccc(N)nc2=O)[C@@H](O)[C@@H]1O` [DXM-p-ara-C (III), 5'-(Dexamethasone-21-phosphoryl)-1-β-D-arabinofuranosylcytosine], the “antiproliferative activity compared with ara-CMP and ara-C” value ([1]; 72 h) is reported as “activity comparable to ara-CMP”, the IC50 ([1]; Mus musculus, L1210, 72 h) is reported as 0.08 µM and the toxicity ([2]; 50 mg (71.7 μmol)/kg/day) is reported as “showed some toxicity”. For the same compound, the “Mean Survival Days, Treated” value ([2]; 50 mg/kg/day × 5 i.p.) was 13.50 days, the “Percent T/C (mean survival days treated/control × 100)” value ([2]; 50 mg/kg/day × 5 i.p.) was 150% and the response vs control in vivo at 50 mg/kg [2] was 150%. The “Survival Days Mean (Treated)” value ([4]; 36.0 μmole/kg/day × 5) was 11.50 days, the “Weight change on Day 8 (g/mouse)” value ([4]; 36.0 μmole/kg/day × 5) was -1.03 g/mouse and the “Survival Days Mean (Treated)” value ([4]; 71.7 μmole/kg/day × 5) was 13.50 days. The “Weight change on Day 8 (g/mouse)” value ([4]; 71.7 μmole/kg/day × 5) was -1.50 g/mouse, the response vs control in vivo at 36 µmol/kg ([4]; Mus musculus, L1210, ip, 36.0 μmole/kg/day × 5, read-out: % T/C) was 128% and the response vs control in vivo at 71.7 µmol/kg ([4]; Mus musculus, L1210, ip, 71.7 μmole/kg/day × 5, read-out: % T/C) was 150%.
`CC12CCC(=O)C=C1CCC1C3CCC(O)(C(=O)COP(=O)(O)OCC4OC(n5ccc(N)nc5=O)C(O)C4O)C3(C)CC(O)C12F` (centres unmarked) [Fludrocortisone-p-ara-C] was tested, and the “Survival Days Mean (Treated)” value ([4]; 36.46 μmole/kg/day × 5) was 14.30 days, the “Weight change on Day 8 (g/mouse)” value ([4]; 36.46 μmole/kg/day × 5) was -1.09 g/mouse and the response vs control in vivo at 36.46 µmol/kg ([4]; Mus musculus, L1210, ip, 36.46 μmole/kg/day × 5, read-out: % T/C) was 159%.
For `C[C@H]1C[C@@H]2[C@H]([C@@H](O)C[C@@]3(C)[C@H]2CC[C@]3(O)C(=O)COP(=O)(O)OC[C@H]2O[C@H](n3ccc(N)nc3=O)[C@@H](O)[C@@H]2O)[C@@]2(C)C=CC(=O)C=C12` [MePred-p-ara-C (IV), 5'-(6α-Methylprednisolone-21-phosphoryl)-1-α-D-arabinofuranosylcytosine], the “antiproliferative activity compared with ara-CMP and ara-C” value ([1]; 72 h) was “activity comparable to ara-CMP”, the IC50 ([1]; 72 h) was 0.05 µM and the “% T/C” value ([4]; 74.0 μmole/kg/day × 5) was 246.8%. For the same compound, the “Survival Days Mean (Treated)” value ([4]; 74.0 μmole/kg/day × 5) was 19.13 days, the “Survival Days Range” value ([4]; 74.0 μmole/kg/day × 5) was 14 to 24 days and the “Weight change on Day 8 (g/mouse)” value ([4]; 74.0 μmole/kg/day × 5) was -1.08 g/mouse.
For `C[C@]12C=CC(=O)C=C1CC[C@@H]1[C@@H]2[C@@H](O)C[C@@]2(C)[C@H]1CC[C@]2(O)C(=O)CO` [Prednisolone, 11β,17α,21-trihydroxy-1,4-pregnadiene-3,20-dione, reference compound], the response vs control in vivo at 25 mg/kg [2, 5] was 133%.
For `C[C@]12C=CC(=O)C=C1CC[C@@H]1[C@@H]2C(=O)C[C@@]2(C)[C@H]1CC[C@]2(O)C(=O)CO` [prednisone, 17α,21-dihydroxy-1,4-pregnadiene-3,11,20-trione, reference compound], the response vs control in vivo at 25 mg/kg ([2]; 25 mg/kg/day × 5 i.p., read-out: Percent T/C (mean survival days treated/control × 100)) was 133%.
